Experimental findings from US5055479A, “Method of treating cachexia” (Sankyo Company, Limited, priority 1988, dated 1991) are described below.

Molecules are shown by their SMILES. Where only a bound is given, the exact number is not on record here.

Series [1] in a line: Acute toxicity in mice, intraperitoneal injection. To be noted: mouse, in vivo, ip. From the text:
(§1) All of the compounds of formula (I) employed in the present invention have shown low toxicity and high safety, with limited side effects.

The subject of series [2] is tumor cells, adenocarcinoma C-12G. The series can be described thus: Improving cachexia and increasing life-span of tumor bearing mice. The format is in vivo, mouse (CSF1). From the text:
A mouse cachexia model was made by inoculating 6×10^5 viable tumor cells, adenocarcinoma C-12G, subcutaneously into the right axillary region of a CSF1 mouse (8-9 weeks old, female weighing 21-24 g, n=10). The viable tumor cells were counted under a microscope after staining them with 0.4% of trypan blue (Sigma Co.).
The growth of this kind of tumor, inoculated subcutaneously, causes a marked Weight loss (the weight losses of mice 16-17 days after tumor inoculation were (4.0-4.5 g), piloerection and depression of emotion and finally death.
Compound No. 1-19 (hereafter called the test compound) was suspended in saline containing 0.5% CMC (carboxymethyl cellulose) at a concentration of 4 mg/ml. The suspension was administrated orally to mice on days 1-4, 7-11, 14-24 (20 times in total) after the tumor inoculation. The status of the mice, such as weight loss. Piloerection, depression of emotion and increase in life-span, was observed.
On the other hand, for a control group of mice, saline solution containing 0.5% of CMC was given orally.
In the above, the median survival times were measured in days.

The nature of series [3]: Acute toxicity in rats, subcutaneous injection. As to conditions: rat, in vivo, sc.
Text: as §1

The subject of series [4] is plasma lipoprotein lipase. Put plainly: Enhancement of plasma lipoprotein lipase activity in mice. The format is in vivo, mice (Balb/c). To be noted: 9 mg/kg via tail vein, 21 hours later. The procedure: Female mice (Balb/c, 10 weeks old, n=6, i.e. the number in each test group was 6) were injected with 9 mg/kg of the test compound (Compound No. 1-19) via the tail vein. Twenty one hours later, the activities of the plasma lipoprotein lipase were determined according to Vlassara's method. [Horm. Metabol. Res., 18, 698-703(1986)].
Activities of the plasma lipoprotein lipase in control mice receiving physiological saline were expressed as 100 and the relative value is shown in the following Table 5.

In series [1], `Cc1nc2ncnn2c2c1CCN2Cc1ccc(Cl)cc1` [Compound 1-54, 8-(4-chlorobenzyl)-7,8-dihydro-5-methyl-6H-pyrrolo[3,2-e][1,2,4]triazolo[1,5-a]pyrimidine] came in with a 50% lethal dose (LD50) of no less than 300 mg/kg.
On the same count and under the same terms, under `Cc1nc2ccnn2c2c1CCN2Cc1ccccc1` [Compound 2-2, 8-benzyl-7,8-dihydro-5-methyl-6H-pyrazolo[1,5-a]pyrrolo[3,2-e]pyrimidine] stands no less than 300 mg/kg.
As to `Cc1nc2ncnn2c2c1CCN2C(C)(C)C` [Compound 1-19, 8-t-butyl-7,8-dihydro-5-methyl-6H-pyrrolo[3,2-e][1,2,4]triazolo[1,5-a]pyrimidine], the “Median Survival time” value in series [2] (40 mg/kg/day orally, days 1-4, 7-11, 14-24, control 28.0) stood at 40.5 days. In series [2] (40 mg/kg/day orally, days 1-4, 7-11, 14-24, vs control), the “Increase in life-span (ILS)” value was found to be 45%. Also, in series [2] (oral administration, 20 times in total), the “status of the mice (weight, hair retention and emotion)” value is “extensive improvements in weight, hair retention and emotion”. The compound further had an LD50 in series [3] of no less than 100 mg/kg. In addition, the “lipoprotein lipase activity relative to control” value in series [4] (of that of the control) stood at 120%. The “Relative activity of the lipoprotein lipase” value in series [4] (saline control = 100, n = 6, mean ± standard deviation, p<0.05 vs saline) worked out at 120 ± 10.6.
Compound `Cc1ccc(CN2CCc3c(C)nc4ncnn4c32)cc1` [Compound 1-48, 7,8-dihydro-5-methyl-8-(4-methylbenzyl)-6H-pyrrolo[3,2-e][1,2,4]triazolo[1,5-a]pyrimidine] yielded an LD50 in series [1] of no less than 300 mg/kg.
As to `COc1ccc(CN2CCc3c(C)nc4ncnn4c32)cc1` [Compound 1-49, 7,8-dihydro-8-(4-methoxybenzyl)-5-methyl-6H-pyrrolo[3,2-e][1,2,4]triazolo[1,5-a]pyrimidine], the LD50 in series [1] is no less than 300 mg/kg.
